Results as given in patent US20060079453A1, “Hla binding peptides and their uses” (priority 2002, published 2006).
Values joined by “and” are separate entries in the source; they are usually repeats but may differ in a detail not shown here. Equal values may be shown once. Read-outs that look alike come from different tables or passages of the source. No end group written: not given here.

Columns and labels:
Assay in all cases: biochemical
H-2Dd = H-2Dd (Mus musculus, UniProt P01900); type: binding, murine
H-2Dd, sequence (P01900 25-365): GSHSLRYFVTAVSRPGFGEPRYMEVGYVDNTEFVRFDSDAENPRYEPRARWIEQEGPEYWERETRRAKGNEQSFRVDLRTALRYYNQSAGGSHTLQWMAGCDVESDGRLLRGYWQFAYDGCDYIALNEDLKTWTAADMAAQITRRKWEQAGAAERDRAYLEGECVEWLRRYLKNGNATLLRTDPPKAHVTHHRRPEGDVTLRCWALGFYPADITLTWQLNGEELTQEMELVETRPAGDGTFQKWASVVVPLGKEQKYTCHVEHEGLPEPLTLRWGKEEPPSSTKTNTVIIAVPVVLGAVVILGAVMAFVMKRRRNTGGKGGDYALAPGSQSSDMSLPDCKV
H-2Dd, sequence (P61769 21-119, further chain): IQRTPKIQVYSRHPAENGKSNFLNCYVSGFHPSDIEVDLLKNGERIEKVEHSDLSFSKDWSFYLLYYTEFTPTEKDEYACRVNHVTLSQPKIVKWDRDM

H-2 Db = H-2 Db (Mus musculus, UniProt P01899); type: binding, murine; details: Db
H-2 Db, sequence (P61769 21-119): as the sequence (P61769 21-119, further chain) above
H-2 Db, sequence (P01899 25-362): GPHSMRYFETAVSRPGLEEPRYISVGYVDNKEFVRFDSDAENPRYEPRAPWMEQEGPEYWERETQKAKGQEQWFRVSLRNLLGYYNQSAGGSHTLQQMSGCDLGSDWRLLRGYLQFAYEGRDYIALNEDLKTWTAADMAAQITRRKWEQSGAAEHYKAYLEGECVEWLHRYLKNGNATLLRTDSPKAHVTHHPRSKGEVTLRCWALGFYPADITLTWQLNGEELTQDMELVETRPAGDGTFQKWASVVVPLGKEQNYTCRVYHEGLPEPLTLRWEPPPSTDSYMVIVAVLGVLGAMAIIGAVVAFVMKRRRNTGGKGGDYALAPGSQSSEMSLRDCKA

HLA-DR DRB3*0101 (DR52) = HLA-DR DRB3*0101 (DR52) (Homo sapiens, UniProt P01903+P79483); type: binding
HLA-DR DRB1*0701 (DR7) = HLA-DR DRB1*0701 (DR7) (Homo sapiens, UniProt P01903+P01911, A100R/A102G/A103Q/D57E/D86V/E43K/F76Y/K127E/L162R/M171V/P40G/Q125H/Q99D/R33Q/R42Y/R54Q/S133A/S66F/T210M/V115G/Y107V/Y59L/Y89S); type: binding; details: DRB1 *0701
HLA-DR DRB1*1101 (DR11) = HLA-DR DRB1*1101 (DR11) (Homo sapiens, UniProt P01903+P01911, A100R/A169T/A87E/I96F/K41T/L162R/M171V/P40S/Q125H/Q178H/Q39Y/Q99D/R42S/S66Y/T262R/V115G/W38E); type: binding
HLA-DR DRB1*1101 (DR11), sequence (P01903 26-254 limits assumed, other chains not shown): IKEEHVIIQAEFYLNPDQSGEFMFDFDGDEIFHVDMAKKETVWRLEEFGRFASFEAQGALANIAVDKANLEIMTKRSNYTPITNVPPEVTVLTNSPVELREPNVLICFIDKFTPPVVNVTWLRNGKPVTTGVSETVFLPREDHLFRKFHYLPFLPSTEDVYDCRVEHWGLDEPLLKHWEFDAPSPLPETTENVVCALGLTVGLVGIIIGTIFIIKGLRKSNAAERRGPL

HLA-DR DRB5*0101 (DR51) = HLA-DR DRB5*0101 (DR51) (Homo sapiens, UniProt P01903+Q30154); type: binding
HLA-DR DRB1*0401 (DR4) = HLA-DR DRB1*0401 (DR4) (Homo sapiens, UniProt P01903+P01911, A100K/A169T/F76Y/I96L/K127E/L162R/M171V/N62H/P40V/Q125Y/R42H/S133A/S149N/S66Y/V115G/V209L/W38E); type: binding; details: DRB1 *0401
HLA-DR DRB4*0101 (DR53) = HLA-DR DRB4*0101 (DR53) (Homo sapiens, UniProt P01903+P13762, G164S); type: binding
HLA-DR DRB1*0901 (DR9) = HLA-DR DRB1*0901 (DR9) (Homo sapiens, UniProt P01903+P01911, A100R/A103E/D57H/D86V/F55Y/F60I/F76Y/I96F/K127E/L162R/M171V/P40D/Q125H/Q99R/R33Q/R42F/S133A/S66N/T210M/V115G/W38K/Y107V/Y59G/Y89S); type: binding; details: DRB1 *0901
HLA-DR DRB1*0405 (DR4) = HLA-DR DRB1*0405 (DR4) (Homo sapiens, UniProt P01903+P01911, A100R/A169T/D86S/F76Y/I96L/K127E/L162R/M171V/N62H/P40V/Q125Y/R42H/S133A/S149N/S66Y/V115G/V209L/W38E); type: binding; details: DRB1 *0405
[1] = target: HLA-DQ DQA1*0301/B*0301 (DQ7) (Homo sapiens, UniProt P01909+P01920, A209T/C70Q/DUP78-78/E183D/F237L/G63E/I129T/K197E/L178F/L74F/L98V/Q57E/Q76R/S185I/S97I/T49S/V73L); type: binding
HLA-DR DRB1*0301 (DR3) = HLA-DR DRB1*0301 (DR3) (Homo sapiens, UniProt P01903+P01911, A100K/A102G/A103R/A169T/F55Y/I96L/K41T/L162R/M171V/P40S/Q125H/Q178H/Q39Y/R42S/S66N/T106N/T262R/W38E/Y61H); type: binding
HLA-DR DRB1*0301 (DR3), sequence (P01903 26-254 limits assumed, other chains not shown): as above

HLA-DR DRB1*0802 (DR8) = HLA-DR DRB1*0802 (DR8) (Homo sapiens, UniProt P01903+P01911, A100R/A103L/A169T/F76Y/H45Y/I96F/K41T/L162R/M171V/P40S/Q125H/Q178H/Q39Y/Q99D/R218S/R42G/S66Y/V115G/W38E); type: binding
HLA-DR DRB1*1501 (DR15) = HLA-DR DRB1*1501 (DR15) (Homo sapiens, UniProt P01903+P01911); type: binding
HLA-B*0702 = HLA-B*0702 (Homo sapiens, UniProt P01889); type: binding; details: B*0702 binding affinity (IC50)
HLA-B*5401 = HLA-B*5401 (Homo sapiens, UniProt P01889, A329T/C349S/D138N/D201E/E176V/E187T/E204Q/E69G/I76V/K202T/L119W/R155S/R180L/S121T/S35A/S48A/V127L/V306I/V36M/Y140L); type: binding; details: B*5401 binding affinity (IC50)
HLA-B*5101 = HLA-B*5101 (Homo sapiens, UniProt P01889, A329T/A93T/A95T/C349S/D138N/D201E/D98Y/E187L/E204Q/E69T/G107R/I218V/K202T/L105A/L119W/N104I/Q94N/R106L/R155S/R180L/S101N/S121T/S35A/S48A/V306I/V36M/Y195H/Y91F); details: B*5101 binding affinity (IC50)
HLA-B*3501 = HLA-B*3501 (Homo sapiens, UniProt P01889, A329T/A93T/A95T/C349S/D201E/D98Y/E176V/E187L/E204Q/E69T/I218V/K202T/L119I/Q94N/R155S/R180L/S121R/S35A/S48A/T118I/V127L/V306I/V36M/Y140S/Y91F); details: B*3501 binding affinity (IC50)
HLA-B*5301 = HLA-B*5301 (Homo sapiens, UniProt P01889, A329T/A93T/A95T/C349S/D201E/D98Y/E176V/E187L/E204Q/E69T/G107R/I218V/K202T/L105A/L119I/N104I/Q94N/R106L/R155S/R180L/S101N/S121R/S35A/S48A/T118I/V127L/V306I/V36M/Y140S/Y91F); type: binding; details: B*5301 binding affinity (IC50)
HLA-DR DRB1*1302 (DR13) = HLA-DR DRB1*1302 (DR13) (Homo sapiens, UniProt P01903+P01911, A100E/A169T/K41T/L162R/M171V/P40S/Q125H/Q178H/Q39Y/Q99D/R42S/S66N/T262R/V115G/W38E/Y61H); type: binding; details: read-out: DRBI *1302
HLA-DR DRB1*1302 (DR13), sequence (P01903 26-254 limits assumed, other chains not shown): as above

## CSCC[C@H](NC(=O)[C@@H](NC(=O)[C@H](CCC(=O)O)NC(=O)[C@H](CCSC)NC(=O)[C@H](CC(N)=O)NC(=O)[C@H](CCC(=O)O)NC(=O)[C@H](CC(N)=O)NC(=O)[C@H](CO)NC(=O)[C@H](C)N)[C@@H](C)O)C(=O)O
H-2Dd
  IC50: > 37000 nM
H-2 Db
  IC50: 41 nM and 33 nM

## CC[C@H](C)[C@H](NC(=O)[C@@H](N)CCCCN)C(=O)N[C@@H](Cc1ccccc1)C(=O)NCC(=O)N[C@@H](CO)C(=O)N[C@@H](CC(C)C)C(=O)N[C@@H](C)C(=O)N[C@@H](Cc1ccccc1)C(=O)N[C@@H](CC(C)C)C(=O)N1CCC[C@H]1C(=O)N[C@@H](CCC(=O)O)C(=O)N[C@@H](CO)C(=O)N[C@@H](Cc1ccccc1)C(=O)N[C@@H](CC(=O)O)C(=O)NCC(=O)N[C@@H](CC(=O)O)C(=O)N1CCC[C@H]1C(=O)N[C@@H](C)C(=O)O
HLA-DR DRB3*0101 (DR52)
  IC50: 43.7 µM
HLA-DR DRB1*0701 (DR7)
  IC50: 377 nM
HLA-DR DRB1*1101 (DR11); DRB1 *1101
  IC50: > 52.6 µM
HLA-DR DRB5*0101 (DR51); DRB5 *0101
  IC50: 8.01 µM
HLA-DR DRB1*0401 (DR4)
  IC50: 1.2 µM
HLA-DR DRB4*0101 (DR53); DRB4 *0101
  IC50: 10 µM
HLA-DR DRB1*0901 (DR9)
  IC50: 15.8 µM
HLA-DR DRB1*0405 (DR4)
  IC50: 37 nM
[1]
  IC50: 320 nM
HLA-DR DRB1*0301 (DR3)
  IC50: 74.2 µM
HLA-DR DRB1*0802 (DR8)
  IC50: > 75.4 µM
HLA-DR DRB1*1501 (DR15); DRBI *1501
  IC50: 2260 nM

## CC(C)C[C@H](NC(=O)CNC(=O)[C@H](CCC(N)=O)NC(=O)[C@H](Cc1ccc(O)cc1)NC(=O)[C@@H](NC(=O)[C@H](Cc1ccc(O)cc1)NC(=O)CNC(=O)[C@@H](N)CCCNC(=N)N)C(C)C)C(=O)O
H-2Dd
  IC50: > 37000 nM
H-2 Db
  IC50: > 44000 nM

## (44)YAAAAAAKAAA
[1]; read-out: DQB1*0301
  IC50: 26 nM

## AGPYRAFVTI
H-2Dd
  IC50: 5 nM

## AHAAHAAHAAHAAHAA
HLA-DR DRB1*0701 (DR7)
  IC50: > 250000 nM
HLA-DR DRB1*1101 (DR11); DRB1 *1101
  IC50: ≥ 200 µM
HLA-DR DRB5*0101 (DR51); DRB5 *0101
  IC50: ≥ 200 µM
HLA-DR DRB1*0401 (DR4)
  IC50: 80 µM
[1]
  IC50: 58 nM

## APAAGPGPGPA
HLA-B*0702
  IC50: 173 nM

## APAAPGPGPGA
HLA-B*0702
  IC50: 811 nM

## APAGPGPGAPA
HLA-B*0702
  IC50: 161 nM

## APGPGPGLL
HLA-B*0702
  IC50: 299 nM

## APGPGPGTAL [APGPGPGTAL]
HLA-B*0702
  IC50: 81 nM

## APRGPGPGAL [APRGPGPGAL]
HLA-B*0702
  IC50: 11 nM

## APRGPGPGL
HLA-B*0702
  IC50: 4.9 nM

## APRTGPGPGL
HLA-B*0702
  IC50: 15 nM

## CLKDRRNFDIIPEEIK
[1]; read-out: DQB1*0301
  IC50: 19400 nM

## DDVWLGGLAEKFLPY
[1]; read-out: DQB1*0301
  IC50: 241 nM

## FPVRPQVPI
HLA-B*0702
  IC50: 94 nM
HLA-B*5401
  IC50: 0.0091 µM
HLA-B*5101
  IC50: 0.039 µM
HLA-B*3501
  IC50: 0.124 µM

## FSPRRNGYL
H-2Dd
  IC50: 2.7 nM

## GGAYRLIVF
H-2Dd
  IC50: 3.5 nM

## GPGHKARVI
HLA-B*0702
  IC50: 1690 nM
HLA-B*5401
  IC50: > 50 µM
HLA-B*5101
  IC50: > 55 µM
HLA-B*3501
  IC50: > 72 µM

## GPKVKQWPI
HLA-B*0702
  IC50: 5500 nM
HLA-B*5401
  IC50: > 50 µM
HLA-B*5101
  IC50: > 55 µM
HLA-B*3501
  IC50: > 72 µM

## GSDLVEALYLVCGER
[1]
  IC50: > 89300 nM

## IDVWLGDLAENFLPY
[1]
  IC50: > 44600 nM

## IDVWLGGLDENFLPY
[1]
  IC50: > 19200 nM

## IDWDLGGLAENFLPY
[1]; read-out: DQB1*0301
  IC50: 218 nM

## KEDSHCAWTWRVEI
[1]; read-out: DQB1*0301
  IC50: 4100 nM

## KGPYRAFVTI
H-2Dd
  IC50: 5.8 nM

## KVPRNQDWL
H-2 Db
  IC50: 38 nM

## LGFVFTLTV
HLA-B*0702
  IC50: 849 nM
HLA-B*5301
  IC50: > 93 µM
HLA-B*3501
  IC50: > 72 µM

## QKEDAAVTIYIEMLQN
[1]; read-out: DQB1*0301
  IC50: 515 nM

## QLQQFQKEDAAVTIY
HLA-DR DRB1*1101 (DR11); read-out: DRB1 *1101
  IC50: > 408 µM
HLA-DR DRB5*0101 (DR51); read-out: DRB5 *0101
  IC50: 4.27 µM
HLA-DR DRB4*0101 (DR53); read-out: DRB4 *0101
  IC50: 1.34 µM
HLA-DR DRB1*1302 (DR13)
  IC50: 68 nM
[1]; read-out: DQB1*0301
  IC50: 26200 nM
HLA-DR DRB1*1501 (DR15); read-out: DRBI *1501
  IC50: 1720 nM

## QPRAPIRPI
HLA-B*0702
  IC50: 6770 nM
HLA-B*5401
  IC50: > 100 µM
HLA-B*5101
  IC50: > 55 µM
HLA-B*3501
  IC50: > 72 µM

## RGAYRAFVTI
H-2Dd
  IC50: 3.4 nM

## RGKYRAFVTI
H-2Dd
  IC50: 67 nM

## RGPARAFVTI
H-2Dd
  IC50: 1.04 nM

## RGPFRAFVTI
H-2Dd
  IC50: 0.78 nM

## RGPGRAFYTI
H-2Dd
  IC50: 7.2 nM
